Data as given in paper PMC11131246, “Molecular determinants for brain targeting by peptides: a meta-analysis approach with experimental validation” (Fluids and Barriers of the CNS, 2024).

Test: Analytical RP-HPLC retention time (used as indication of hydrophobicity)
Type: physicochemical
Settings: analytical reverse phase HPLC, UV chromatogram; free and CF-labelled peptides

| Substance | HPLC tR |
| --- | --- |
| CF-KWCFRVCYRGICYRRCR-amide [CF-TI, 5(6)-carboxyfluorescein-labelled TI] | 8.11 min |
| CF-KYKGAIIGNIK-amide [CF-A, 5(6)-carboxyfluorescein-labelled A] | 7.05 min |
| CF-KYRSGAITIGY-amide [CF-B, 5(6)-carboxyfluorescein-labelled B] | 7.62 min |
| CF-LKTLTETLKELTKTLTEL-amide [CF-KLA13, 5(6)-carboxyfluorescein-labelled KLA13] | 13.51 min |
| CF-NRPDSAQFWLHH-amide [CF-Peptide third, 5(6)-carboxyfluorescein-labelled Peptide third] | 8.01 min |
| CF-RPKPQQFFGLM-amide [CF-SPA, 5(6)-carboxyfluorescein-labelled SPA] | 9.25 min |
| CF-YDEEGGGE-amide [CF-YDEGE, 5(6)-carboxyfluorescein-labelled YDEGE] | 7.89 min |
| CF-YKEATSTFTNITYRGT-amide [CF-Peptide b3-1, 5(6)-carboxyfluorescein-labelled Peptide b3-1] | 8.63 min |
| CF-YTQDFNKFHTFPQTAIGVGAP-amide [CF-hCR(12–32), 5(6)-carboxyfluorescein-labelled hCR(12–32)] | 8.79 min |
